{"source": "ChEMBL document CHEMBL5584354", "about": "“Impact of Conjugation of the Reactive Oxygen Species (ROS)-Generating Catalytic Moiety with Membrane-Active Antimicrobial Peptoids: Promoting Multitarget Mechanism and Enhancing Selectivity” (J Med Chem, 2024)", "key": {"Escherichia coli [1]": {"system": "Escherichia coli", "assay": "Antibacterial activity against Escherichia coli ATCC 25922 assessed as inhibition of bacterial growth incubated for 24 hrs by broth dilution method", "format": "functional"}, "Staphylococcus aureus": {"system": "Staphylococcus aureus", "assay": "Antibacterial activity against Staphylococcus aureus ATCC 25923 assessed as inhibition of bacterial growth incubated for 24 hrs by broth dilution method", "format": "functional"}, "[2]": {"assay": "Hemolytic activity in male Sprague-Dawley rat erythrocytes at 25 uM incubated for 1 hr by absorbance based method relative to control", "format": "toxicity, cell-based, Erythrocyte", "details": "read-out: Activity"}, "[3]": {"assay": "Hemolytic activity in male Sprague-Dawley rat erythrocytes at 50 uM incubated for 1 hr by absorbance based method relative to control", "format": "toxicity, cell-based, Erythrocyte", "details": "read-out: Activity"}, "[4]": {"assay": "Hemolytic activity in male Sprague-Dawley rat erythrocytes at 100 uM incubated for 1 hr by absorbance based method relative to control", "format": "toxicity, cell-based, Erythrocyte", "details": "read-out: Activity"}, "Erythrocyte": {"system": "Erythrocyte", "assay": "Hemolytic activity in male Sprague-Dawley rat erythrocytes assessed as concentration required for 10% hemolysis incubated for 1 hr by absorbance based method", "format": "toxicity, cell-based"}, "RAW264.7 [5]": {"system": "RAW264.7", "assay": "Cytotoxicity against mouse RAW264.7 cells assessed as cell killing incubated for 24 hrs by MTS assay", "format": "toxicity, cell-based", "details": "raw264.7, 24 h"}, "Klebsiella pneumoniae": {"system": "Klebsiella pneumoniae", "assay": "Antibacterial activity against carbapenem-resistant Klebsiella pneumoniae NMS118 harboring extended-spectrum beta-lactamase assessed as inhibition of bacterial growth incubated for 24 hrs by broth dilution method", "format": "functional"}, "Escherichia coli [6]": {"system": "Escherichia coli", "assay": "Induction of lipid peroxidation in Escherichia coli ATCC 25922 assessed as increase in green fluorescence at 12.5 uM incubated for 1 hrs by BODIPY 581/591 C11 dye based confocal microscopic analysis", "format": "functional, organism-based"}, "Streptococcus pneumoniae [7]": {"system": "Streptococcus pneumoniae", "assay": "Antibacterial activity against catalase-negative Streptococcus pneumoniae KCMM42691 assessed as inhibition of bacterial growth incubated for 24 hrs by broth dilution method", "format": "functional"}, "Streptococcus pneumoniae [8]": {"system": "Streptococcus pneumoniae", "assay": "Antibacterial activity against catalase-negative Streptococcus pneumoniae KCMM42691 assessed as cell killing at 12.5 uM incubated for 4 to 16 hrs by CFU assay", "format": "functional, organism-based", "details": "time 4-16 hrs"}, "[9]": {"assay": "Cytotoxicity against mouse RAW264.7 cells assessed as cell viability at 10 uM incubated for 24 hrs by […] relative to control", "format": "toxicity, cell-based", "details": "read-out: Activity"}, "[10]": {"assay": "Cytotoxicity against mouse RAW264.7 cells assessed as cell viability at 20 uM incubated for 24 hrs by […] relative to control", "format": "toxicity, cell-based", "details": "read-out: Activity"}, "RAW264.7 [11]": {"system": "RAW264.7", "assay": "Antiinflammatory activity in LPS-stimulated mouse RAW264.7 cells assessed as reduction in TNFalpha production at 10 uM incubated for 16 hrs by ELISA relative to control", "format": "functional", "parameters": "scale not given: the % may be the effect or the level left"}, "HEK-Blue hTLR7": {"system": "HEK-Blue hTLR7", "assay": "Inhibition of TLR4-mediated inflammatory signaling in LPS-stimulated HEK-Blue […] cells assessed as reduction in SEAP activity at 10 uM preincubated for 1 hr followed by LPS stimulation and measured after 16 hrs by ELISA relative to control", "format": "cell-based", "details": "Homo sapiens, time 17.0 hrs"}, "[12]": {"assay": "Toxicity in female ICR mouse assessed as effect on AST level in serum at 5 mg/kg, ip administered four doses for 12 hrs and measured 24 hrs post last dose", "format": "organism-based", "details": "in vivo, 36 h"}, "[13]": {"assay": "Toxicity in female ICR mouse assessed as effect on ALT level in serum at 5 mg/kg, ip administered four doses for 12 hrs and measured 24 hrs post last dose", "format": "organism-based", "details": "in vivo, 36 h"}, "[14]": {"assay": "Toxicity in female ICR mouse assessed as dilatation of renal vein in kidney at 5 mg/kg, ip administered four doses for 12 hrs and measured 24 hrs post last dose by H and E staining based light microscopic analysis", "format": "organism-based", "details": "in vivo, 36 h"}, "Escherichia coli [15]": {"system": "Escherichia coli", "assay": "Antibacterial activity against Escherichia coli K1 infected in female ICR mouse model of septic shock assessed as increase in animal survival at 5 mg/kg, ip pretreated for 1 hr followed by bacteria addition and further treated with 3 doses of compound every 4 hrs and measured every hour for 36 hrs and every 6 hrs for 96 hrs", "format": "functional"}, "Escherichia coli [16]": {"system": "Escherichia coli", "assay": "(§1) Antibacterial activity against Escherichia coli K1 infected in female ICR mouse model of septic shock assessed as reduction in bacterial load in liver at 5 mg/kg, ip pretreated for 1 hr followed by bacteria addition and further treated with 3 doses of compound every 4 hrs", "format": "functional, organism-based", "details": "time 9.0 hrs"}, "Escherichia coli [17]": {"system": "Escherichia coli", "assay": "Antibacterial activity against Escherichia coli K1 infected in female ICR mouse model of septic shock assessed as reduction in bacterial load in kidney at 5 mg/kg, ip pretreated for 1 hr followed by bacteria addition and further treated with 3 doses of compound every 4 hrs", "format": "functional, organism-based", "details": "time 9.0 hrs"}, "Escherichia coli [18]": {"system": "Escherichia coli", "assay": "(§2) Antibacterial activity against Escherichia coli K1 infected in female ICR mouse model of septic shock assessed as reduction in endotoxin level at 5 mg/kg, ip pretreated for 1 hr followed by bacteria addition and further treated with 3 doses of compound every 4 hrs relative to control", "format": "functional", "parameters": "scale not given: the % may be the effect or the level left", "details": "time 9 hrs"}, "Escherichia coli [19]": {"system": "Escherichia coli", "assay": "as §2, with “TNFalpha” for “endotoxin”, “level in serum” for “level”, “hrs by ELISA” for “hrs”", "format": "functional", "parameters": "scale not given: the % may be the effect or the level left", "details": "time 9 hrs"}, "Escherichia coli [20]": {"system": "Escherichia coli", "assay": "(§3) Antibacterial activity against Escherichia coli K1 infected in female ICR mouse model of septic shock assessed as reduction in IL-6 level in serum at 5 mg/kg, ip pretreated for 1 hr followed by bacteria addition and further treated with 3 doses of compound every 4 hrs by ELISA relative to control", "format": "functional", "parameters": "scale not given: the % may be the effect or the level left", "details": "time 9 hrs"}, "Escherichia coli [21]": {"system": "Escherichia coli", "assay": "as §3, with “IL-1beta” for “IL-6”", "format": "functional", "parameters": "scale not given: the % may be the effect or the level left", "details": "time 9 hrs"}, "Escherichia coli [22]": {"system": "Escherichia coli", "assay": "Antibacterial activity against Escherichia coli K1 infected in female ICR mouse model of septic shock assessed as reduction in AST level in serum at 5 mg/kg, ip pretreated for 1 hr followed by bacteria addition and further treated with 3 doses of compound every 4 hrs relative to control", "format": "functional", "parameters": "scale not given: the % may be the effect or the level left", "details": "time 9 hrs"}, "Escherichia coli [23]": {"system": "Escherichia coli", "assay": "as §1, with “infiltrated […]” for “bacterial load”, “lung” for “liver”, “hrs by H and E staining based light microscopic analysis” for “hrs”", "format": "functional, organism-based", "details": "time 9.0 hrs"}}, "note": "Activity calls are given as the source filed them. No cut-off for these calls is given here. Non-standard residues stand in square brackets, D forms with d. Residues, ends and D or L forms follow the SMILES beside them. Gly(N(CH2)2(3-indolyl)) = O=C(O)CNCCc1c[nH]c2ccccc12; Nspe = C[C@H](NCC(=O)O)c1ccccc1; Nlys = NCCCCNCC(=O)O"}
{"smiles": "C[C@@H](c1ccccc1)N(CC(=O)N(CCCCN)CC(=O)N(CCc1c[nH]c2ccccc12)CC(=O)N(CCc1c[nH]c2ccccc12)CC(N)=O)C(=O)CN(CCCCN)C(=O)CN(CCCCN)C(=O)CN(C(=O)CN(C(=O)CN(CCCCN)C(=O)CN(C(=O)CN(C(=O)CN(CCCCN)C(=O)[C@H](Cc1c[nH]cn1)NC(=O)CNC(=O)CN)[C@@H](C)c1ccccc1)[C@@H](C)c1ccccc1)[C@@H](C)c1ccccc1)[C@@H](C)c1ccccc1", "note": "(H-GGH[Nlys][Nspe][Nspe][Nlys][Nspe][Nspe][Nlys][Nlys][Nspe][Nlys][Gly(N(CH2)2(3-indolyl))][Gly(N(CH2)2(3-indolyl))]-NH2)", "values": [{"measurement": "MIC", "setting": "Escherichia coli [1]", "value": 6.3, "unit": "µM"}, {"measurement": "MIC", "setting": "Staphylococcus aureus", "value": 12.5, "unit": "µM"}, {"measurement": "hemolysis at 1 h, 25 µM", "setting": "[2]", "value": 3.13, "unit": "%"}, {"measurement": "hemolysis at 1 h, 50 µM", "setting": "[3]", "value": 4.83, "unit": "%"}, {"measurement": "hemolysis at 1 h, 100 µM", "setting": "[4]", "value": 5.57, "unit": "%"}, {"measurement": "HC10", "setting": "Erythrocyte", "value": "> 100", "unit": "µM"}, {"measurement": "LC50", "setting": "RAW264.7 [5]", "value": 39.6, "unit": "µM"}, {"measurement": "MIC", "setting": "Klebsiella pneumoniae", "value": "> 25", "unit": "µM"}, {"measurement": "Activity", "setting": "Escherichia coli [6]", "value": "Active"}, {"measurement": "MBC", "setting": "Streptococcus pneumoniae [7]", "value": 12.5, "unit": "µM"}, {"measurement": "MIC", "setting": "Streptococcus pneumoniae [7]", "value": 6.3, "unit": "µM"}, {"measurement": "Activity", "setting": "Streptococcus pneumoniae [8]", "value": "Active"}, {"measurement": "viability at 24 h, 10 µM", "setting": "[9]", "value": 94.5, "unit": "%"}, {"measurement": "viability at 24 h, 20 µM", "setting": "[10]", "value": 74.1, "unit": "%"}, {"measurement": "Activity", "setting": "RAW264.7 [11]", "value": 32.5, "unit": "%"}, {"measurement": "inhibition", "setting": "HEK-Blue hTLR7", "value": 49.7, "unit": "%"}, {"measurement": "Activity", "setting": "[12]", "value": "Non-Toxic"}, {"measurement": "Activity", "setting": "[13]", "value": "Non-Toxic"}, {"measurement": "Activity", "setting": "[14]", "value": "Non-Toxic"}, {"measurement": "survival at 5 mg/kg", "setting": "Escherichia coli [15]", "value": 60, "unit": "%"}, {"measurement": "Activity", "setting": "Escherichia coli [16]", "value": "Active"}, {"measurement": "Activity", "setting": "Escherichia coli [17]", "value": "Active"}, {"measurement": "Activity", "setting": "Escherichia coli [18]", "value": 44.3, "unit": "%"}, {"measurement": "Activity", "setting": "Escherichia coli [19]", "value": 46.6, "unit": "%"}, {"measurement": "Activity", "setting": "Escherichia coli [20]", "value": 42.8, "unit": "%"}, {"measurement": "Activity", "setting": "Escherichia coli [21]", "value": 48.3, "unit": "%"}, {"measurement": "Activity", "setting": "Escherichia coli [22]", "value": 32.7, "unit": "%"}, {"measurement": "Activity", "setting": "Escherichia coli [23]", "value": "Active"}]}
